In paper PMC11979947, “Modeling Krebs cycle from liver, heart and hepatoma mitochondria, supported Complex I as target for specific inhibition of cancer cell proliferation” (Frontiers in Oncology, 2025) one finds IC50 and Effect on proliferation data, which are given here for 2 compounds.

Like-named read-outs stand apart in the source and are kept apart here.

In experiment [1] the test system is HeLa cervix cancer cells. Description: MTT cell proliferation assay, HeLa. The experiment is classed as cell-based, human. Particulars: read-out: IC50 on proliferation. Here is the method: (§1) Human cervix cancer HeLa and SiHa, human prostate cancer PC3, human colon cancer colo-205, and rat heart myoblast H9c2 cells (CRL-1446, ATCC, Manassas, VA, USA) were cultured in DMEM medium, while human breast cancer MCF7 cells were cultivated in MEM medium. Human breast epithelial MCF-10A cells (CRL-10317, ATCC, Manassas, VA, USA) were cultivated in F-12/DMEM medium. All media were supplemented with 25 mM glucose, 10% fetal bovine serum (Biowest, Riverside, MO, USA) and 10,000 U streptomycin/penicillin/mL under an atmosphere of 5% CO2 and 95% air at 37°C until 80-90% confluence.
(§2) The cell lines (20 × 10^3 cells/well) were grown in 96-well plates containing Dulbecco’s Modified Eagle’s Medium (DMEM) (Sigma-Aldrich, St Louis, MO, USA) for 24 h. Afterward, the cells were exposed to rotenone (1 nM to 50 µM) or malonate (0.1µM to 100 mM) for 24 h. Drug effects on cell proliferation were determined by using the 3-(4,5-dimethyl-thiazol-2-yl)-2,5-diphenyltetrazolium bromide (MTT) (Sigma-Aldrich, St Louis, MO, USA) assay. Plates were incubated at 37°C for 3 h; after, the medium was discarded, and the formazan crystals were dissolved with 100 µL DMSO. After 5 min incubation at 37°C, the absorbance was measured at λ 595 nm ([34]).
For orientation: Tetrazolium assays rely on reduction of a dye to a coloured formazan, in cell work by metabolically active cells.

Experiment [2] deals with MCF7 breast cancer cells. In words: MTT cell proliferation assay, MCF7. The experiment is classed as cell-based, human. Particulars: read-out: IC50 on proliferation. The procedure:
as §1, §2

Experiment [3] concerns H9c2 heart myoblast cells. In words: MTT cell proliferation assay, H9c2. It counts as cell-based, rat. The note with it: read-out: IC50 on proliferation. The procedure: as §1, §2
Experiment [4] has as its system PC3 prostate cancer cells. In words: MTT cell proliferation assay, PC3. It counts as cell-based, human. The note with it: read-out: IC50 on proliferation. Here is the method: as §1, §2
Experiment [5] concerns MCF10A breast non-cancer cells. In words: MTT cell proliferation assay, MCF10A. The experiment is classed as cell-based, human. The note with it: for IC50: read-out: IC50 on proliferation. Here is the method:
as §1, §2

Experiment [6] relates to COLO-205 colon cancer cells. Description: MTT cell proliferation assay, COLO-205. It counts as cell-based, human. Particulars: read-out: IC50 on proliferation. The procedure: as §1, §2
The test system of experiment [7] is SiHa cervix cancer cells. In words: MTT cell proliferation assay, SiHa. The experiment is classed as cell-based. The note with it: Homo sapiens, 24 h, read-out: IC50 on proliferation. Here is the method:
as §1, §2

For the compound `O=C(O)CC(=O)O` [Malonate, malonate], the IC50 turned out to be 27000 ± 5000 µM in experiment [1] (24 h treatment, MTT); 41000 ± 1000 µM in experiment [2] (MCF7, 24 h treatment, MTT); 25000 ± 5000 µM in experiment [3] (H9c2, 24 h treatment, MTT); 40000 ± 2000 µM in experiment [4] (PC3, 24 h treatment, MTT); 43000 ± 9000 µM in experiment [5] (MCF10A, 24 h treatment, MTT); 32000 ± 3000 µM in experiment [6] (COLO-205, 24 h treatment, MTT).

In the case of `C=C(C)[C@H]1Cc2c(ccc3c2O[C@@H]2COc4cc(OC)c(OC)cc4[C@@H]2C3=O)O1` [Rotenone, rotenone], the IC50 is 17 ± 5 µM in experiment [1] (Homo sapiens, 24 h); 0.15 ± 0.09 µM in experiment [2] (Homo sapiens, MCF7, 24 h); 34 ± 10 µM in experiment [3] (Rattus norvegicus, H9c2, 24 h); 13 ± 1 µM in experiment [4] (Homo sapiens, 24 h); > 50 µM in experiment [5] (Homo sapiens, MCF-10A, 24 h); 37 ± 9 µM in experiment [6] (Homo sapiens, COLO 205, 24 h). In experiment [7], the IC50 was 18 ± 3 µM. For the same compound, in experiment [5] (MCF10A, 50 µM, 24 h of treatment), the Effect on proliferation result is given as “not affected”.
